The values below come from patent US8354443B2, “Cyclopropane indolinone derivatives” (Hoffmann-La Roche Inc., priority 2009, dated 2013).

The test system of this assay is recombinant AMPK proteins (α1β1γ1, α2β1γ1, α1(1-335), α1(1-394) or α2(1-394)). Briefly: Scintillation Proximity Assay (AMPK activation). The assay is classed as biochemical, human. The note with it: effective concentration of activator for 50% of maximal enzyme activity; 2 hr at 30° C.; AMPK form not specified. An excerpt:
Recombinant human AMPK α1β1γ1, α2β1γ1 or AMPK a subunit truncations α1 (1-335), α1 (1-394) and α2(1-394) were constructed, expressed and purified as described previously (Pang, T., Zhang, Z. S., Gu, M., Qiu, B. Y., Yu, L. F., Cao, P. R., Shao, W., Su, M. B., Li, J. Y., Nan, F. J., and Li, J. (2008) or purchased from Invitrogen (San Diego, Calif., U.S.A.). Rat liver AMPK heterotrimer enzyme was obtained from Upstate (Billerica, Mass., U.S.A.).
Before the Scintillation Proximity Assay (SPA) assay, 200 nM recombinant AMPK proteins (α1β1γ1, α2β1γ1, α1(1-335), α1(1-394) or α2(1-394)) were fully phosphorylated as described previously (Pang et al., 2008). SPA reactions were performed in 96-well plates at a final volume of 50 μl containing 20 mM Tris-HCl pH 7.5, 5 mM MgCl2, 1 mM DTT, 2 μM biotin-SAMS, 2 μM ATP, 0.2 μCi/well [γ-^33P]ATP, and various amount of activator. Reactions were initiated by the addition of 50 nM recombinant AMPK proteins to the reaction solutions and incubated at 30° C. for 2 hr. After that, reactions were terminated by the addition of 40 μl stop solution containing 80 μg streptavidin-coated SPA beads per well, 50 mM EDTA, 0.1% Triton X-100 in PBS, pH 7.5 and incubated for 1 hr. Finally, a 160 μl suspension solution containing 2.4 M CsCl, 50 mM EDTA, and 0.1% Triton X-100 in PBS (pH 7.5) was added to the reaction solution to suspend SPA beads completely. SPA signals were determined with a Wallac MicroBeta plate counter (PerkinElmer) 30 min later for calculation of the amount of product formed. The amount of products formed in 2 hr was plotted against activator concentrations to determine the effective concentration of the activator (EC50) required for 50% of maximal enzyme activity.
On the technique in general: SPA uses beads or plates that emit light when radiolabelled molecules are held near them.
Consider `O=C(O)c1cccc(CN2C(=O)[C@]3(C[C@H]3c3ccccc3F)c3ccccc32)c1` (mixture of isomers) [Example 9, (1S,2S) and (1R,2R)-3-((2-(2-fluorophenyl)-2′-oxospiro[cyclopropane-1,3′-indoline]-1′-yl)methyl)benzoic acid], for which the concentration giving a half-maximal response (EC50) was 1190 nM.

Take `CC(C)N1CCN(CCN2C(=O)[C@]3(C[C@@H]3c3ccc(Cl)cc3)c3ccccc32)CC1` (racemic) [Example 74, (1S,2R) and (1R,2S)-2-(4-chlorophenyl)-1′-(2-(4-isopropylpiperazin-1-yl)ethyl)spiro [cyclopropane-1,3′-indolin]-2′-one]: the EC50 was found to be 8800 nM.

On to `O=C(O)c1cccc(CN2C(=O)[C@@]3(C[C@H]3c3ccc(Cl)cc3)c3ccccc32)c1` (racemic) [Example 1, (1R,2S) and (1S,2R)-3-((2-(4-chlorophenyl)-2′-oxospiro[cyclopropane-1,3′-indoline]-1′-yl)methyl)benzoic acid], for which the half-maximal effective concentration (EC50) is 2570 nM.

In the case of `O=C(O)c1cc(N2CCCC2=O)cc(N2C(=O)[C@]3(C[C@H]3c3ccc(Cl)cc3)c3ccccc32)c1` (racemic) [Example 94, (1S,2S) and (1R,2R)-3-(2-(4-chlorophenyl)-2′-oxospiro[cyclopropane-1,3′-indoline]-1′-yl)-5-(2-oxopyrrolidin-1-yl)benzoic acid], the EC50 was 1500 nM.

On to `CN1CCCC1CCNC(=O)c1cccc(CN2C(=O)[C@]3(C[C@@H]3c3ccc(Cl)cc3)c3ccccc32)c1` (stereo partly drawn) [Example 66, 3-(((1S,2R)-2-(4-chlorophenyl)-2′-oxospiro[cyclopropane-1,3′-indoline]-1′-yl)methyl)-N-(2-((S)-1-methylpyrrolidin-2-yl)ethyl)benzamide and 3-(((1R,2S)-2-(4-chlorophenyl)-2′-oxospiro[cyclopropane-1,3′-indoline]-1′-yl)methyl)-N-(2-((5)-1-methylpyrrolidin-2-yl)ethyl)benzamide], for which the EC50 is 1070 nM.

For the molecule `COc1ccc([C@H]2C[C@]23C(=O)N(Cc2cccc(C(=O)O)c2)c2ccccc23)cc1` (racemic) [Example 21, (1S,2R) and (1R,2S)-3-((2-(4-methoxyphenyl)-2′-oxospiro[cyclopropane-1,3′-indoline]-1′-yl)methyl)benzoic acid], the concentration giving a half-maximal response (EC50) is 2030 nM.

Turning to `CS(=O)(=O)N1CCN(C(=O)c2cccc(N3C(=O)[C@]4(C[C@@H]4c4ccc(Cl)cc4)c4ccccc43)c2)CC1` (racemic) [Example 90, (1R,2S) and (1S,2R)-2-(4-chlorophenyl)-1′-(3-(4-(methylsulfonyl)piperazine-1-carbonyl)phenyl)spiro[cyclopropane-1,3′-indolin]-2′-one], the EC50 came to 1470 nM.

In the case of `O=C1N(c2c[nH]cn2)c2ccccc2[C@@]12C[C@@H]2c1ccc(Cl)cc1` (racemic) [Example 131, (1S,2R) and (1R,2S)-2-(4-chlorophenyl)-1′-(1H-imidazol-4-yl)spiro[cyclopropane-1,3′-indolin]-2′-one], the EC50 was 3270 nM.

For the molecule `O=C1N(CCN2CCOCC2)c2ccccc2[C@@]12C[C@@H]2c1ccc(Cl)cc1` (racemic) [Example 72, (1S,2R) and (1R,2S)-2-(4-chlorophenyl)-1′-(2-morpholinoethyl) spiro[cyclopropane-1,3′-indolin]-2′-one], the 50% effective concentration (EC50) came out at 4100 nM.

For the molecule `CN(C)[C@@H]1CCN(CCN2C(=O)[C@@]3(C[C@H]3c3ccc(Cl)cc3)c3ccccc32)C1` (mixture of isomers) [Example 77, (1S,2R)-2-(4-chlorophenyl)-1′-(2-((R)-3-(dimethylamino)pyrrolidin-1-yl)ethyl)spiro[cyclopropane-1,3′-indolin]-2′-one and (1R,2S)-2-(4-chlorophenyl)-1′-(2-((R)-3-(dimethylamino)pyrrolidin-1-yl)ethyl)spiro[cyclopropane-1,3′-indolin]-2′-one], the EC50 is 2170 nM.

For `O=C(O)c1cccc(CN2C(=O)[C@]3(C[C@@H]3c3ccc(Cl)cc3)c3ccccc32)n1` (racemic) [Example 68, (1S,2R) and (1R,2S)-6-((2-(4-chlorophenyl)-2′-oxospiro[cyclopropane-1,3′-indoline]-1′-yl)methyl)picolinic acid], the 50% effective concentration (EC50) worked out at 2800 nM.

With `CS(=O)(=O)N1CCN(C(=O)c2cccc(N3C(=O)[C@]4(C[C@H]4c4ccc(Cl)cc4)c4ccccc43)c2)CC1` (racemic) [Example 87, (1S,2S) and (1R,2R)-2-(4-chlorophenyl)-1′-(3-(4-(methylsulfonyl)piperazine-1-carbonyl)phenyl)spiro[cyclopropane-1,3′-indolin]-2′-one], the EC50 was found to be 6730 nM.

For the molecule `O=C(O)Cn1cnc(N2C(=O)[C@]3(C[C@@H]3c3ccc(Cl)cc3)c3ccccc32)c1` (racemic) [Example 80, (1S,2R) and (1R,2S)-2-(4-(2-(4-chlorophenyl)-2′-oxospiro[cyclopropane-1,3′-indoline]-1′-yl)-1 H-imidazol-1-yl)acetic acid], the EC50 came to 1250 nM.

For the molecule `O=C(O)c1cccc(CN2C(=O)[C@]3(C[C@H]3c3ccc(F)cc3)c3ccccc32)c1` (racemic) [Example 26, (1S,2S) and (1R,2R)-3-((-2-(4-fluorophenyl)-2′-oxospiro[cyclopropane-1,3′-indoline]-1′-yl)methyl)benzoic acid], the EC50 amounted to 1790 nM.

As to `O=C(O)c1cccc(N2C(=O)[C@]3(C[C@H]3c3ccc(Cl)cc3)c3ccccc32)c1` (racemic) [Example 84, (1S,2S) and (1R,2R)-3-(−2-(4-chlorophenyl)-2′-oxospiro[cyclopropane-1,3′-indoline]-1′-yl)benzoic acid], the EC50 is 2980 nM.

Regarding `N#Cc1ccc([C@H]2C[C@]23C(=O)N(Cc2cccc(C(=O)O)c2)c2ccccc23)cc1` (racemic) [Example 5, (1S,2R) and (1R,2S)-3-((2-(4-cyanophenyl)-2′-oxospiro[cyclopropane-1,3′-indoline]-1′-yl)methyl)benzoic acid], the half-maximal effective concentration (EC50) worked out at 5300 nM.

As to `O=C1N(CCN2CCN(c3ccncc3)CC2)c2ccccc2[C@@]12C[C@@H]2c1ccc(Cl)cc1` (racemic) [Example 129, (1S,2R) and (1R,2S)-2-(4-chlorophenyl)-1′-(2-(4-(pyridin-4-yl)piperazin-1-yl)ethyl) spiro[cyclopropane-1,3′-indolin]-2′-one], the EC50 was 1680 nM.

For the molecule `O=C(O)c1cccc(CN2C(=O)[C@]3(C[C@H]3c3cccc(F)c3)c3ccccc32)c1` (racemic) [Example 11, (1S,2S) and (1R,2R)-3-((2-(3-fluorophenyl)-2′-oxospiro[cyclopropane-1,3′-indoline]-1′-yl)methyl)benzoic acid], the concentration giving a half-maximal response (EC50) came to 2040 nM.

`O=C1N(CCNCCCN2CCOCC2)c2ccccc2[C@@]12C[C@@H]2c1ccc(Cl)cc1` (racemic) [Example 127, (1S,2R) and (1R,2S)-2-(4-chlorophenyl)-1′-(2-(3-morpholinopropylamino)ethyl) spiro[cyclopropane-1,3′-indolin]-2′-one]: the EC50 stood at 4500 nM.

On to `CNC(=O)c1cccc(CN2C(=O)[C@@]3(C[C@H]3c3ccc(Cl)cc3)c3ccccc32)c1` (racemic) [Example 110, (1R,2S) and (1S,2R)-3-((2-(4-chlorophenyl)-2′-oxospiro[cyclopropane-1,3′-indoline]-1′-yl)methyl)-N-methylbenzamide], for which the EC50 was found to be 1370 nM.

With `COc1ccc([C@@H]2C[C@]23C(=O)N(Cc2cccc(C(=O)O)c2)c2ccccc23)cc1` (racemic) [Example 20, (1S,2S) and (1R,2R)-3-((2-(4-methoxyphenyl)-2′-oxospiro[cyclopropane-1,3′-indoline]-1′-yl)methyl)benzoic acid], the concentration giving a half-maximal response (EC50) is 900 nM.

With `O=C1N(CC2CCNCC2)c2ccccc2[C@@]12C[C@@H]2c1ccc(Cl)cc1` (racemic) [Example 124, (1S,2R) and (1R,2S)-2-(4-chlorophenyl)-1′-(piperidin-4-ylmethyl) Spiro[cyclopropane-1,3′-indolin]-2′-one], the EC50 was found to be 5400 nM.

As for `O=C(NCCCN1CCOCC1)c1cccc(CN2C(=O)[C@@]3(C[C@H]3c3ccc(Cl)cc3)c3ccccc32)c1` (racemic) [Example 112, (1R,2S) and (1S,2R)-3-((2-(4-chlorophenyl)-2′-oxospiro[cyclopropane-1,3′-indoline]-1′-yl)methyl)-N-(3-morpholinopropyl)benzamide], the 50% effective concentration (EC50) is 1270 nM.

In the case of `CN1CCN(C(=O)c2cccc(N3C(=O)[C@]4(C[C@H]4c4ccc(Cl)cc4)c4ccccc43)c2)CC1` (racemic) [Example 86, (1S,2S) and (1R,2R)-2-(4-chlorophenyl)-1′-(3-(4-methylpiperazine-1-carbonyl)phenyl) Spiro[cyclopropane-1,3′-indolin]-2′-one], the EC50 came to 1730 nM.

One may read the EC50 as the concentration at which the effect is half-maximal.
